Experimental data from US20240415804A1, “METHOD OF TREATING PANCREATIC CANCER” (University of South Florida, priority 2022, published 2024).

Test system: SHIP-1
Test: SHIP-1 gene and protein expression in tumors of HPC mice
Type: in vivo, mouse
Details: API 25 mg/kg IP 3 times per week for 3-4 weeks, vs vehicle
Procedure: Earlier studies have shown the anti-tumor activity of API in pre-clinical experimental models of cancer^41, 62-68. The inventors have reported that API increased survival and reduced tumor growth in a heterotopic (H) mouse model of PC (HPC)^55. To investigate if API targets miR-155 and regulates SHIP-1 in the TME of an HPC mouse model, HPC mice were treated with API at a dose of 25 mg/kg (IP) 3 times per week for 3-4 weeks.
All female C57BL/6 mice (6-8 weeks of age) described in this study were purchased from Envigo (Indianapolis, IN, USA) and were acclimatize for one week in a pathogen-free animal facility (University of South Florida (USF) vivarium) before injections with PC cells. To generate heterotopic pancreatic cancer (HPC) models, mice were subcutaneously injected with 1.5×10^5 murine Panc02 (HPC mice) or 5×10^6 murine UN-KC-6141 cells (KC-HPC mice), in sterile 1× phosphate buffer saline (PBS), in the lower ventral abdomen, while control (CTRL) mice received sterile 1×PBS. […]
Isolation of total RNA from digested pancreatic tumors and BM cells was performed using a RNeasy Mini Kit (Qiagen), according to the manufacturer's instructions. RT-PCR of quantified and normalized total RNA was performed using a High-Capacity cDNA RT Kit with an RNase Inhibitor (Applied Biosystems), according to the manufacturer's instructions. […]

## O=c1cc(-c2ccc(O)cc2)oc2cc(O)cc(O)c12 [API, 40,5,7-Trihydroxyflavone, 5,7-Dihydroxy-2-(4-hydroxyphenyl)-4-benzopyrone]
  SHIP-1 gene expression in tumor: increased
  SHIP-1 protein expression in tumor: increased
